These results are taken from patent US20110245242A1, “Heterocyclically Substituted Anilinopyrimides” (Bayer CropScience AG, priority 2008, published 2011).

The nature of one series: physchem. The format is physicochemical. The conditions noted are these: pH 7.8. As for the experimental part:
The log P values were measured in accordance with EEC Directive 79/831 Annex V.A8 by HPLC (High Performance Liquid Chromatography) on reversed-phase columns (C 18) using the methods below: [c] The LC-MS determination in the neutral range was carried out at pH 7.8 using the mobile phases 0.001 molar aqueous ammonium bicarbonate solution and acetonitrile linear gradient from 10% acetonitrile to 95% acetonitrile.

A short description of series [1]: log P by LC-MS, method [b], acid range pH 2.7. The format is physicochemical. As to conditions: pH 2.7. How it is done:
The log P values were measured in accordance with EEC Directive 79/831 Annex V.A8 by HPLC (High Performance Liquid Chromatography) on reversed-phase columns (C 18) using the methods below:
[b] The LC-MS determination in the acid range was carried out at pH 2.7 using the mobile phases 0.1% aqueous formic acid and acetonitrile (contains 0.1% formic acid)
linear gradient from 10% acetonitrile to 95% acetonitrile.

For the compound `CC1CC1Nc1nc(Nc2cccc(N3CCCCC3=O)c2)ncc1Br` (centres unmarked) [Example 223], the log p was 2.67[c]; in the series “physchem” and 1.81[b] in series [1].
Regarding `O=C1CCCN1c1cccc(Nc2ncc(Cl)c(N3CCCCC3)n2)c1` [Example 225], the log p in the series “physchem” is 3.53[c];; in series [1], 2.57[b].
Regarding `O=C1CCCN1c1cccc(Nc2ncc(Cl)c(N3CCOCC3)n2)c1` [Example 226], the log p in “physchem” is 2.29[c];; in series [1] it was 1.98[b].
For the compound `CC1CC1Nc1nc(Nc2cccc(N3CCOC3=O)c2)ncc1Br` (centres unmarked) [Example 227], the log p is 2.79[c]; in the series “physchem” and 1.77[b] in series [1].
Taken in the same sequence, the figures for `O=C1CCCN1c1cccc(Nc2ncc(Cl)c(N3CCSCC3)n2)c1` [Example 228] were 3.01[c]; and 2.63[b].
Consider `CC1CC1Nc1nc(Nc2cccc(N3CCCC3=O)c2)ncc1Br` (centres unmarked) [Example 229], for which the log p was 2.82[c]; in the series “physchem” and 1.84[b] in series [1].
For `C[C@H]1COC(=O)N1c1cccc(Nc2ncc(Cl)c(N3CCC3)n2)c1` [Example 230], the log p is 2.75[c]; in the series “physchem” and 1.58[b] in series [1].
With `CC1CC1Nc1nc(Nc2cccc(N3C(=O)OCC3C)c2)ncc1Br` (centres unmarked) [Example 239], the results for the log p (in the series “physchem”; in series [1]) were 2.9[c]; and 1.83[b], respectively.
As for `CC1CC(=O)N(c2cccc(Nc3ncc(C(F)(F)F)c(NC4CC4)n3)c2)C1` (centres unmarked) [Example 240], the log p in “physchem” was 3.06[c];; in series [1], 2.65[b].
Take `CC1CCN(c2cccc(Nc3ncc(Cl)c(NC4CC4C)n3)c2)C1=O` (centres unmarked) [Example 241]: the figures for the log p (in the series “physchem”; in series [1]) were 3.17[c]; and 2.06[b], respectively.
Taken in the same sequence, the figures for `CC1CCC(=O)N1c1cccc(Nc2ncc(C(F)(F)F)c(NC3CC3)n2)c1` (centres unmarked) [Example 243] were 2.73[c]; and 2.41[b].
Regarding `CC1CC(=O)N(c2cccc(Nc3ncc(C(F)(F)F)c(NC4CC4)n3)c2)C1=O` (centres unmarked) [Example 244], the log p in the series “physchem” is 2.53[c];; in series [1], 2.29[b].
`CC1CC1Nc1nc(Nc2cccc(N3C(=O)CC(C)(C)C3=O)c2)ncc1Cl` (centres unmarked) [Example 246]: the log p in “physchem” was 2.92[c];; in series [1], 2.09[b].
With `CC1CC(=O)N(c2cccc(Nc3ncc(C(F)(F)F)c(NC4CCC4)n3)c2)C1=O` (centres unmarked) [Example 247], the log p is 3.04[c]; in “physchem” and 2.67[b] in series [1].
On to `CC(C)C1COC(=O)N1c1cccc(Nc2ncc(Br)c(NC3CCC3)n2)c1` (centres unmarked) [Example 248], for which the log p was 3.71[c]; in “physchem” and 2.54[b] in series [1].
With `CC(C)C1COC(=O)N1c1cccc(Nc2ncc(C(F)(F)F)c(NC3CC3)n2)c1` (centres unmarked) [Example 249], the log p in “physchem” is 3.34[c];; in series [1], 3.04[b].
In the case of `CC(C)C1COC(=O)N1c1cccc(Nc2ncc(Br)c(NC3CC3)n2)c1` (centres unmarked) [Example 250], the figures for the log p (in the series “physchem”; in series [1]) were 3.18[c]; and 2.22[b], respectively.
For `CC1CCN(c2cccc(Nc3ncc(C(F)(F)F)c(NC4CCC4)n3)c2)C1=O` (centres unmarked) [Example 251], the log p in “physchem” is 3.67[c];; in series [1], 3.16[b].
As to `CC1(Nc2nc(Nc3cccc(N4CCCC4=O)c3)ncc2C(F)(F)F)CC1` [Example 252], the results for the log p (in “physchem”; in series [1]) were 2.95[c]; and 2.44[b], respectively.
On to `CC1CC(Nc2nc(Nc3cccc(N4C(=O)CCC4C)c3)ncc2Cl)C1` (centres unmarked) [Example 253], for which the log p is 3.16[c]; in “physchem” and 2.15[b] in series [1].
On to `CC1CC(Nc2nc(Nc3cccc(N4C(=O)CC(C)(C)C4=O)c3)ncc2Br)C1` (centres unmarked) [Example 257], for which the results for the log p (in “physchem”; in series [1]) were 3.66[c]; and 2.58[b], respectively.
As for `O=C1CCC(C(F)(F)F)N1c1cccc(Nc2ncc(Br)c(NC3CCC3)n2)c1` (centres unmarked) [Example 258], the log p is 3.24[c]; in the series “physchem” and 2.3[b] in series [1].
With `CC1CC(Nc2nc(Nc3cccc(N4C(=O)CC(C)(C)C4=O)c3)ncc2Cl)C1` (centres unmarked) [Example 259], the log p in “physchem” was 3.22[c];; in series [1], 2.43[b].
With `O=C1CCC(C(F)(F)F)N1c1cccc(Nc2ncc(Cl)c(NC3CC3)n2)c1` (centres unmarked) [Example 260], the log p was 2.67[c]; in the series “physchem” and 1.89[b] in series [1].
With `CC(C)C1COC(=O)N1c1cccc(Nc2ncc(C(F)(F)F)c(NC3CCC3)n2)c1` (centres unmarked) [Example 263], the results for the log p (in the series “physchem”; in series [1]) were 3.85[c]; and 3.47[b], respectively.
As to `CC1CN(c2cccc(Nc3ncc(Cl)c(NC4CC4)n3)c2)C(=O)O1` (centres unmarked) [Example 264], the log p was 2.56[c]; in “physchem” and 1.65[b] in series [1].
On to `CC1CC(Nc2nc(Nc3cccc(N4C(=O)CC(C)C4=O)c3)ncc2Br)C1` (centres unmarked) [Example 281], for which the log p in the series “physchem” was 2.98[c];; in series [1] it was 2.23[b].
As to `CC1CN(c2cccc(Nc3ncc(Br)c(NC4CCC4)n3)c2)C(=O)O1` (centres unmarked) [Example 287], the log p in the series “physchem” is 3.17[c];; in series [1], 2.04[b].
Consider `CC1CC(C)N(c2cccc(Nc3ncc(C(F)(F)F)c(NC4CCC4)n3)c2)C1=O` (centres unmarked) [Example 289], for which the log p in “physchem” is 3.74[c];; in series [1] it was 3.27[b].
As for `CC1CCN(c2cccc(Nc3ncc(C(F)(F)F)c(NC4CC4)n3)c2)C1=O` (centres unmarked) [Example 292], the log p in “physchem” was 3.05[c];; in series [1] it was 2.65[b].
For the compound `CCC1CCC(=O)N1c1cccc(Nc2ncc(Cl)c(NC3CC3)n2)c1` (centres unmarked) [Example 294], the log p in “physchem” is 2.74[c];; in series [1] it was 1.87[b].
As to `CC1CC1Nc1nc(Nc2cccc(N3C(=O)CC(C)(C)C3=O)c2)ncc1Br` (centres unmarked) [Example 295], the log p is 3.11[c]; in the series “physchem” and 2.2[b] in series [1].
Taken in the same sequence, the figures for `CC(C)Nc1nc(Nc2cccc(N3CCCC3=O)c2)ncc1C(F)(F)F` [Example 297] were 3[c]; and 2.35[b].
With `CC1CC(Nc2nc(Nc3cccc(N4CCCC4=O)c3)ncc2Cl)C1` (centres unmarked) [Example 299], the log p is 3.26[c]; in the series “physchem” and 3.25[b] in series [1].
For `O=C1CCCN1c1cccc(Nc2ncc(C(F)(F)F)c(N3CCCC3)n2)c1` [Example 301], the figures for the log p (in “physchem”; in series [1]) were 3.24[c]; and 2.45[b], respectively.
As for `O=C1CCCN1c1cccc(Nc2ncc(C(F)(F)F)c(NCCF)n2)c1` [Example 302], the log p was 2.67[c]; in the series “physchem” and 2.05[b] in series [1].
Consider `CC1CC1N(C)c1nc(Nc2cccc(N3CCCC3=O)c2)ncc1Cl` (centres unmarked) [Example 304], for which the log p is 3.53[c]; in the series “physchem” and 2.66[b] in series [1].
With `Cc1ccc(Nc2ncc(Cl)c(NC3CC3)n2)cc1N1CCCC1=O` [Example 305], the figures for the log p (in “physchem”; in series [1]) were 2.32[c]; and 1.44[b], respectively.
`O=C1CCCN1c1cccc(Nc2ncc(C(F)(F)F)c(NCC(F)(F)F)n2)c1` [Example 306]: the log p in “physchem” is 2.66[c];; in series [1], 2.6[b].
As for `CC1CC1Nc1nc(Nc2ccc(N3CCOC3=O)cc2)ncc1Br` (centres unmarked) [Example 308], the log p in “physchem” was 2.91[c];; in series [1] it was 1.97[b].
Taken in the same sequence, the figures for `COC(=O)N(c1cccc(N2CCCC2=O)c1)c1ncc(C(F)(F)F)c(NC2CC2)n1` [Example 309] were 2.37[c]; and 2.25[b].
Turning to `Cc1cc(Nc2ncc(C(F)(F)F)c(NC3CC3)n2)cc(N2CCCC2=O)c1` [Example 310], the values for the log p (in “physchem”; in series [1]) were 2.98[c]; and 2.51[b], respectively.
As for `O=C1CCCN1c1cccc(Nc2ncc(C(F)(F)F)c(NCC(F)F)n2)c1` [Example 311], the log p was 2.52[c]; in the series “physchem” and 2.38[b] in series [1].
In the case of `CC1CN(c2cccc(Nc3ncc(Cl)c(NC4CCC4)n3)c2)C(=O)O1` (centres unmarked) [Example 312], the values for the log p (in the series “physchem”; in series [1]) were 3.02[c]; and 1.91[b], respectively.
Taken in the same sequence, the figures for `O=C1CCC(C(F)(F)F)N1c1cccc(Nc2ncc(C(F)(F)F)c(NC3CC3)n2)c1` (centres unmarked) [Example 314] were 2.98[c]; and 2.74[b].
Consider `Cc1ccc(Nc2ncc(C(F)(F)F)c(NC3CC3)n2)cc1N1CCCC1=O` [Example 316], for which the log p is 2.62[c]; in the series “physchem” and 2.16[b] in series [1].
As for `COc1cc(Nc2ncc(Cl)c(NC3CC3)n2)cc(N2CCCC2=O)c1` [Example 318], the log p in “physchem” was 2.46[c];; in series [1], 1.64[b].
As to `COc1ccc(Nc2ncc(C(F)(F)F)c(NC3CC3)n2)cc1N1CCCC1=O` [Example 324], the values for the log p (in “physchem”; in series [1]) were 2.51[c]; and 1.98[b], respectively.
Taken in the same sequence, the figures for `CN(c1cccc(N2CCCC2=O)c1)c1ncc(Cl)c(N(C)C2CC2)n1` [Example 325] were 3.66[c]; and 1.98[b].
In the case of `COc1cc(Nc2ncc(C(F)(F)F)c(NC3CC3)n2)cc(N2CCCC2=O)c1` [Example 326], the log p is 2.8[c]; in the series “physchem” and 2.47[b] in series [1].
Taken in the same sequence, the figures for `COC(=O)N(c1cccc(N2CCCC2=O)c1)c1ncc(Cl)c(NC2CC2)n1` [Example 327] were 1.99[c]; and 1.77[b].
With `CC1CC(Nc2nc(Nc3cccc(N4C(=O)CC(C)C4=O)c3)ncc2Cl)C1` (centres unmarked) [Example 333], the values for the log p (in the series “physchem”; in series [1]) were 3.09[c]; and 2.09[b], respectively.
